According to patent US10570168B2, “2′ and/or 5′ amino-acid ester phosphoramidate 3′-deoxy adenosine derivatives as anti- cancer compounds” (NuCana plc, priority 2014, dated 2020):
Where two headings read alike, the source gives them in different places.

How the values were obtained:
Assay type in all cases: cell-based
HL-60 = assay: CellTiterGlo viability assay, initial screening; details: Homo sapiens, read-out: IC50 (relative IC50)
Method: (§1) In vitro viability assays were performed to assess the effects of compounds on cell viability in 7 selected cell lines over 72 hr using the CellTiterGlo (CTG, Promega-G7573) assay. The tests were performed in duplicates with treatment of compounds at 9 points, 3.16 folds titration in 96 well plates over ˜72 hr. The compound starting concentrations were […]. Cell viability assay using CellTiterGlo in 96-well plate were performed. The compound treatment was 72 hrs, under standard growth conditions, and in duplicate. Compounds were dissolved to 40 mM with thawed […]. Compounds were serially diluted at 3.16 fold in thawed DMSO, and warmed to 37° C. before being dissolved in media (2 μl+200 μl). After compounds were dissolved in media (media was also warmed to 37° C.). Media containing compounds were warmed to 37° C. in incubator and then compounds in media were added to cell plates (50 μl+50 μl), in duplicates. The compounds final concentrations were from […] to 19.9 nM. All compound solubilities were checked and recorded again, then the plates were transferred to CO2 tissue culture incubator immediately and incubated for 3 days. DMSO final concentration is 0.5%.

HepG2 [1] = assay: CellTiterGlo viability assay, initial screening; details: Homo sapiens, read-out: IC50 (relative IC50)
Method: as §1

K562 = assay: CellTiterGlo viability assay, initial screening; details: Homo sapiens, read-out: IC50 (relative IC50)
Method: as §1

KG-1 [2] = assay: CellTiterGlo viability assay, initial screening; details: Homo sapiens, read-out: IC50 (relative IC50)
Method: as §1

MCF-7 = assay: CellTiterGlo viability assay, initial screening; details: Homo sapiens, read-out: IC50 (relative IC50)
Method: as §1

MOLT-4 [3] = assay: CellTiterGlo viability assay, initial screening; details: Homo sapiens, read-out: IC50 (relative IC50)
Method: as §1

CCRFCEM = assay: Solid tumour and haematological malignancy assay (CellTiterGlo); details: Homo sapiens, CCRF-CEM; for IC50: read-out: IC50 (absolute IC50); for Emax: read-out: MI %
Summary of the method: (§2)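 Compound pre-warmed to 37° C in medium, added to cells in duplicate; incubated 3 days in CO2 incubator; viability measured with CellTiterGlo. DMSO final 0.5%.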

HepG2 [4] = assay: as above; details: Homo sapiens; for IC50: read-out: IC50 (absolute IC50); for Emax: read-out: MI %
Summary of the method: as §2

KG-1 [5] = assay: as above; details: Homo sapiens; for IC50: read-out: IC50 (absolute IC50); for Emax: read-out: MI %
Summary of the method: as §2

BxPC-3 = assay: as above; details: Homo sapiens, read-out: IC50 (absolute IC50)
Summary of the method: (§3)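 Cells were treated in duplicate with a 9-point, 3.16-fold dilution series for about 72 h under standard growth conditions. Final concentrations ran from […] to 19.9 nM, with 0.5% DMSO. Viability was read by CellTiter-Glo luminescence.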

HS445 = assay: as above; details: for IC50: read-out: IC50 (absolute IC50); for Emax: read-out: MI %
Summary of the method: as §3

Jurkat = assay: as above; details: Homo sapiens, read-out: IC50 (absolute IC50)
Summary of the method: as §3

MOLT-4 [6] = assay: as above; details: Homo sapiens; for IC50: read-out: IC50 (absolute IC50); for Emax: read-out: MI %
Summary of the method: as §3

MV4-11 = assay: as above; details: Homo sapiens; for IC50: read-out: IC50 (absolute IC50); for Emax: read-out: MI %
Summary of the method: as §3

NCI-H929 = assay: as above; details: Homo sapiens; for IC50: read-out: IC50 (absolute IC50); for Emax: read-out: MI %
Summary of the method: as §3

RL = assay: as above; details: Homo sapiens; for IC50: read-out: IC50 (absolute IC50); for Emax: read-out: MI %
Summary of the method: as §3

RPMI-8226 = assay: as above; details: Homo sapiens; for IC50: read-out: IC50 (absolute IC50); for Emax: read-out: MI %
Summary of the method: as §3

SW620 = assay: as above; details: Homo sapiens; for IC50: read-out: IC50 (absolute IC50); for Emax: read-out: MI %
Summary of the method: as §3

THP-1 = assay: as above; details: Homo sapiens; for IC50: read-out: IC50 (absolute IC50); for Emax: read-out: MI %
Summary of the method: as §3

Z138 = assay: as above; details: Homo sapiens; for IC50: read-out: IC50 (absolute IC50); for Emax: read-out: MI %
Summary of the method: as §3

C[C@H](NP(=O)(OC[C@@H]1CC(O)[C@H](n2cnc3c(N)ncnc32)O1)Oc1ccccc1)C(=O)OCc1ccccc1 (stereo partly drawn) [Compound A, 3′-deoxyadenosine-5′-O-[phenyl(benzyloxy-L-alaninyl)] phosphate]
IC50 (HL-60; HL-60, 72 h): 5 to 15 µM | IC50 (HepG2 [1]; HepG2, 72 h): 5 to 15 µM | IC50 (K562; K562, 72 h): 0.1 to 5 µM | IC50 (KG-1 [2]; KG-1, 72 h): 5 to 15 µM | IC50 (MCF-7; MCF7, 72 h): 0.1 to 5 µM | IC50 (MOLT-4 [3]; MOLT-4, 72 h): 0.1 to 5 µM | IC50 (CCRFCEM; 72 h): 0.1 to 5 µM | Emax (CCRFCEM; 72 h): 100% | IC50 (HepG2 [4]; HepG2, 72 h): 15 to 100 µM | Emax (HepG2 [4]; HepG2, 72 h): 75% | IC50 (KG-1 [5]; KG-1, 72 h): 15 to 100 µM | Emax (KG-1 [5]; KG-1, 72 h): 100% | IC50 (BxPC-3; BXPC-3, 72 h): 15 to 100 µM | IC50 (HS445; Hs 445, 72 h): 15 to 100 µM | Emax (HS445; Hs 445, 72 h): 98% | IC50 (Jurkat; 72 h): 0.1 to 5 µM | IC50 (MOLT-4 [6]; MOLT-4, 72 h): 0.1 to 5 µM | Emax (MOLT-4 [6]; MOLT-4, 72 h): 98% | IC50 (MV4-11; MV4-11, 72 h): 0.1 to 5 µM | Emax (MV4-11; MV4-11, 72 h): 99% | IC50 (NCI-H929; NCI-H929, 72 h): 5 to 15 µM | Emax (NCI-H929; NCI-H929, 72 h): 100% | IC50 (RL; 72 h): 0.1 to 5 µM | Emax (RL; 72 h): 93% | IC50 (RPMI-8226; RPMI-8226, 72 h): 5 to 15 µM | Emax (RPMI-8226; RPMI-8226, 72 h): 96% | IC50 (SW620; SW-620, 72 h): 15 to 100 µM | Emax (SW620; SW-620, 72 h): 85% | IC50 (THP-1; THP-1, 72 h): 15 to 100 µM | Emax (THP-1; THP-1, 72 h): 74% | IC50 (Z138; Z-138, 72 h): 15 to 100 µM | Emax (Z138; Z-138, 72 h): 95%

Nc1ncnc2c1ncn2[C@@H]1O[C@H](CO)C[C@H]1O [Cordycepin, 3′-deoxyadenosine, reference compound]
IC50 (HL-60; HL-60, 72 hr): 15 to 100 µM | IC50 (HepG2 [1]; HepG2, 72 hr): 15 to 100 µM | IC50 (K562; K562, 72 hr): 15 to 100 µM | IC50 (KG-1 [2]; KG-1, 72 hr): 15 to 100 µM | IC50 (MCF-7; MCF7, MCF-7, 72 hr): 15 to 100 µM | IC50 (MOLT-4 [3]; MOLT-4, 72 hr): 15 to 100 µM | IC50 (CCRFCEM; CCRFCEM, 72 hr): > 100 µM | Emax (CCRFCEM; CCRFCEM, 72 hr): 41% | IC50 (HepG2 [4]; HepG2, 72 hr): > 100 µM | Emax (HepG2 [4]; HepG2, 72 hr): 13% | IC50 (KG-1 [5]; KG-1, 72 hr): > 100 µM | Emax (KG-1 [5]; KG-1, 72 hr): 69% | IC50 (BxPC-3; BxPC-3, 72 hr): > 100 µM | IC50 (HS445; Hs 445, HS445, 72 hr): > 100 µM | Emax (HS445; Hs 445, HS445, 72 hr): 2% | IC50 (Jurkat; 72 hr): > 100 µM | IC50 (MOLT-4 [6]; MOLT-4, 72 hr): > 100 µM | Emax (MOLT-4 [6]; MOLT-4, 72 hr): 46% | IC50 (MV4-11; MV4-11, 72 hr): > 100 µM | Emax (MV4-11; MV4-11, 72 hr): 1% | IC50 (NCI-H929; NCI-H929, 72 hr): > 100 µM | Emax (NCI-H929; NCI-H929, 72 hr): 24% | IC50 (RL; 72 hr): > 100 µM | Emax (RL; 72 hr): 17% | IC50 (RPMI-8226; RPMI-8226, 72 hr): > 100 µM | Emax (RPMI-8226; RPMI-8226, 72 hr): 1% | IC50 (SW620; SW-620, SW620, 72 hr): > 100 µM | Emax (SW620; SW-620, SW620, 72 hr): 10% | IC50 (THP-1; THP-1, 72 hr): > 100 µM | Emax (THP-1; THP-1, 72 hr): -3% | IC50 (Z138; Z-138, Z138, 72 hr): 5 to 15 µM | Emax (Z138; Z-138, Z138, 72 hr): 95%

COC(=O)C(C)(C)NP(=O)(OC[C@@H]1C[C@@H](O)[C@H](n2cnc3c(N)ncnc32)O1)Oc1cccc2ccccc12 (stereo partly drawn) [E, Methyl 2-(((((2S,4R,5R)-5-(6-amino-9H-purin-9-yl)-4-hydroxytetrahydrofuran-2-yl)-methoxy)(naphthalen-1-yloxy)phosphoryl)amino)-2-methylpropanoate]
IC50 (HL-60; HL-60, 72 h): 15 to 100 µM | IC50 (HepG2 [1]; HepG2, 72 h): 15 to 100 µM | IC50 (K562; K562, 72 h): > 100 µM | IC50 (KG-1 [2]; KG-1, 72 h): 15 to 100 µM | IC50 (MCF-7; MCF7, 72 h): 15 to 100 µM | IC50 (MOLT-4 [3]; MOLT-4, 72 h): 5 to 15 µM | IC50 (CCRFCEM; 72 h): 0.1 to 5 µM | Emax (CCRFCEM; 72 h): 100% | IC50 (HepG2 [4]; HepG2, 72 h): 15 to 100 µM | IC50 (KG-1 [5]; KG-1, 72 h): 15 to 100 µM | Emax (KG-1 [5]; KG-1, 72 h): 100% | IC50 (BxPC-3; BXPC-3, 72 h): 15 to 100 µM | IC50 (HS445; Hs 445, 72 h): 15 to 100 µM | IC50 (Jurkat; 72 h): 5 to 15 µM | IC50 (MOLT-4 [6]; MOLT-4, 72 h): 0.1 to 5 µM | IC50 (MV4-11; MV4-11, 72 h): 5 to 15 µM | IC50 (NCI-H929; NCI-H929, 72 h): 15 to 100 µM | IC50 (RL; 72 h): 5 to 15 µM | IC50 (RPMI-8226; RPMI-8226, 72 h): 15 to 100 µM | IC50 (SW620; SW-620, 72 h): 15 to 100 µM | IC50 (THP-1; THP-1, 72 h): > 100 µM | IC50 (Z138; Z-138, 72 h): 15 to 100 µM
